In patent US8470889B2 (TRT Pharma Inc., priority 2008, dated 2013):
Like-named read-outs stand apart in the source and are kept apart here.

Tests used:
LNCaP cells [1] = tested on: LNCaP cells;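 further: MTT formazan absorbance at 600 nm read after 72 h of compound exposure, IC50 fitted by nonlinear regression of dose-response curves, samples run in triplicate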
PC-3 cells [2] = tested on: PC-3 cells
Procedure: (§1) MDA PCa 2b was seeded at the same density in medium BRFF-HPC1 (Athena Enzyme Systems, Baltimore, Md., USA) supplemented with 20% FBS. After overnight incubation, the medium was changed to a fresh medium containing different concentrations of test compounds diluted from stock DMSO solution. The final concentration of DMSO is 0.5%. After 72 h of incubation with test compounds, 20 μL of 3-(4,5-dimethyl thiazol-2-yl)-2,5-diphenyltetrazolium bromide (MTT) solution (5 mg/mL in PBS) were added to each well and incubated further for 2 h. Next, the supernatant was aspirated and the MTT formazan formed by metabolically viable cells was dissolved in 100 μL of isopropanol. The plates were mixed for 30 min, and the absorbance was measured at 600 nm on a plate reader (FLUOstar OPTIMA, BMG LabTech). All samples were in triplicate. The IC50 values were determined from dose-response curves by nonlinear regression using PRISM v5.00 (GraphPad Software Inc, La Jolla, Calif., USA).
(§2) The in vitro cytotoxicity of 1-20 were evaluated by MTT assays in a panel of prostate cancer cell lines, including LNCaP, MDA PCa 2b, 22Rv1, C4-2B and PC-3.

22Rv1 cells [3] = tested on: 22Rv1 cells
C4-2B cells [4] = tested on: C4-2B cells;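 further: cells treated with a dilution series for 72 h, then MTT added and absorbance read at 600 nm, IC50 fitted from dose-response curves by nonlinear regression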
Procedure: as §1, §2

LNCaP cells [5] = assay: MTT cell growth inhibition, LNCaP;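 further: MTT formazan absorbance at 600 nm read after 72 h of compound exposure, IC50 fitted by nonlinear regression of dose-response curves, samples run in triplicate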
PC-3 cells [6] = assay: MTT cell growth inhibition, PC-3
Procedure: as §1, §2

22Rv1 cells [7] = assay: MTT cell growth inhibition, 22Rv1; settings: MTT
C4-2B cells [8] = assay: MTT cell growth inhibition, C4-2B;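 further: cells treated with a dilution series for 72 h, then MTT added and absorbance read at 600 nm, IC50 fitted from dose-response curves by nonlinear regression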
Procedure: as §1, §2

[9] = read-out: Cellular IC50 (μM) PC3, Table 8
[10] = read-out: Cellular IC50 (μM) LNCaP, Table 8
[11] = read-out: Cellular IC50 (μM) 22Rv1, Table 8
[12] = read-out: Cellular IC50 (μM) C4-2B, Table 8
[13] = read-out: Cellular IC50 (μM) PC-3, Table 9
[14] = read-out: Cellular IC50 (μM) LNCaP, Table 9
[15] = read-out: Cellular IC50 (μM) 22Rv1, Table 9
[16] = read-out: Cellular IC50 (μM) C4-2B, Table 9

| IC50 (LNCaP cells [1]) [µM] | IC50 (PC-3 cells [2]) [µM] | IC50 (22Rv1 cells [3]) [µM] | Compound | other results |
| --- | --- | --- | --- | --- |
| 4.9 | 6.5 | – | COc1cccc(/C=C/C(=O)/C=C/C2=C(C)C(O)CCC2(C)C)c1 (racemic) [Compound B42] | – |
| 3 | 10.2 | 3.2 | CC1=C(/C=C/C(=O)/C=C/c2ccc(C(F)(F)F)cc2)C(C)(C)CCC1O (racemic) [Compound B26] | IC50 (MDA PCa 2b cells): 9.3 µM |
| 3.3 | 2.9 | 4.7 | CC1=CCCC(C)(C)C1/C=C/C(=O)/C=C/c1cccc([N+](=O)[O-])c1 (racemic) [Compound B21] | IC50 (MDA PCa 2b cells): 5.9 µM; IC50 (C4-2B cells [4]): 4 µM |
| 1.7 | 3.6 | 2 | CC1=C(/C=C/C(=O)/C=C/c2cc(C(F)(F)F)ccc2F)C(C)(C)CCC1O (racemic) [Compound B36] | – |
| 2.9 | 10.4 | 3.3 | CC1=C(/C=C/C(=O)/C=C/c2ccccc2F)C(C)(C)CCC1O (racemic) [Compound B29] | – |
| 4.2 | 15 | 4.1 | CC1=C(/C=C/C(=O)/C=C/c2ccc([N+](=O)[O-])cc2)C(C)(C)CCC1O (racemic) [Compound B41] | – |
| 9.9 | 37.4 | – | COc1ccc(/C=C/C(=O)/C=C/C2=C(C)CCCC2(C)C)cc1O [Compound B2] | – |
| – | 7.7 | – | CC1=C(/C=C/C(=O)/C=C/c2cccc(C(F)(F)F)c2)C(C)(C)CCC1 [Compound B5] | IC50 (LNCaP cells [5]; read-out: IC50 in LNCaP cells): 2.8 µM |
| 4.1 | 6.2 | 4.4 | CC1=C(/C=C/C(=O)/C=C/c2cccc(C)c2)C(C)(C)CCC1O (racemic) [Compound B38] | IC50 (MDA PCa 2b cells): 19 µM |
| 7.3 | 25.8 | – | CC1=C(/C=C/C(=O)/C=C/c2ccc(F)cc2)C(C)(C)CCC1 [Compound B10] | – |
| 17.8 | 35 | – | CC1=C(/C=C/C(=O)/C=C/c2cccc(C)c2)C(C)(C)CCC1 [Compound B14] | – |
| 22.6 | 19 | 18.4 | CC1=CCCC(C)(C)C1/C=C/C(=O)/C=C/c1ccccc1C(F)(F)F (racemic) [Compound B16] | IC50 (C4-2B cells [4]): 11.7 µM |
| 3.9 | 6.2 | 7.5 | CC1=C(/C=C/C(=O)/C=C/c2ccc(F)cc2)C(C)(C)CCC1O (racemic) [Compound B31] | IC50 (C4-2B cells [4]): 4 µM |
| 2.9 | 3.7 | 2.3 | CC1=C(/C=C/C(=O)/C=C/c2ccccc2C(F)(F)F)C(C)(C)CCC1O (racemic) [Compound B24] | IC50 (MDA PCa 2b cells): 2.9 µM |
| 4.4 | 16 | 5.6 | CC1=C(/C=C/C(=O)/C=C/c2cccc(F)c2)C(C)(C)CCC1O (racemic) [Compound B30] | – |
| 9.5 | 42 | – | COc1ccc(/C=C/C(=O)/C=C/C2=C(C)CCCC2(C)C)cc1OC [Compound B3] | – |
| 26.8 | > 50 | – | CC1=C(/C=C/C(=O)/C=C/c2ccc(O)c([N+](=O)[O-])c2)C(C)(C)CCC1 [Compound B12] | – |
| 4.2 | 18.9 | – | CC1=C(/C=C/C(=O)/C=C/c2cc([N+](=O)[O-])ccc2Cl)C(C)(C)CCC1 [Compound B13] | – |
| 9.1 | 12 | – | CC1=C(/C=C/C(=O)/C=C/c2ccc(C(F)(F)F)cc2)C(C)(C)CCC1 [Compound B6] | – |
| 9.5 | 21.3 | – | COc1cc(/C=C/C(=O)/C=C/C2=C(C)CCCC2(C)C)ccc1O [Compound B1] | – |
| 2 | 5.8 | 1.9 | CC1=C(/C=C/C(=O)/C=C/c2cccc([N+](=O)[O-])c2)C(C)(C)CCC1O (racemic) [Compound B40] | IC50 (MDA PCa 2b cells): 6 µM |
| 2.1 | 7 | 2.2 | CC1=C(/C=C/C(=O)/C=C/c2cc(C(F)(F)F)cc(C(F)(F)F)c2)C(C)(C)CCC1O (racemic) [Compound B28] | IC50 (MDA PCa 2b cells): 3.5 µM |
| 8.2 | > 50 | – | CCOc1ccc(/C=C/C(=O)/C=C/C2=C(C)CCCC2(C)C)cc1OCC [Compound B4] | – |
| 1.8 | 7.2 | 2.2 | CC1=C(/C=C/C(=O)/C=C/c2cccc(C#N)c2)C(C)(C)CCC1O (racemic) [Compound B39] | – |
| 1.1 | 3 | 2.4 | CC1=C(/C=C/C(=O)/C=C/c2cc(F)cc(C(F)(F)F)c2)C(C)(C)CCC1O (racemic) [Compound B33] | – |

| IC50 (LNCaP cells [1]) [µM] | IC50 (PC-3 cells [2]) [µM] | IC50 (22Rv1 cells [3]) [µM] | Compound | other results |
| --- | --- | --- | --- | --- |
| – | 18.7 | – | CC1=C(/C=C/C(=O)/C=C/c2cccc(F)c2)C(C)(C)CCC1 [Compound B9] | IC50 (LNCaP cells [5]; read-out: IC50 in LNCaP cells): 12.9 µM |
| 1.1 | 2.1 | – | CC1=C(/C=C/C(=O)/C=C/c2cccc(C(F)(F)F)c2F)C(C)(C)CCC1O (racemic) [Compound B34] | – |
| – | – | – | COc1cc(/C=C/C(O)=C/C(=O)/C=C/C2=C(C)CCCC2(C)C)cc(OC)c1O [Compound 6] | IC50 (PC-3 cells [6]; read-out: IC50 (μM) PC-3, Table 1, 72 h, maximum tested concentration 50 μM): 26.7 µM; IC50 (LNCaP cells [5]; read-out: IC50 (μM) LNCaP, Table 1, 72 h): 6.2 µM; IC50 (22Rv1 cells [7]; read-out: IC50 (μM) 22Rv1, Table 1, 72 h): 12.2 µM; IC50 (C4-2B cells [8]; read-out: IC50 (μM) C4-2B, Table 1, 72 h): 9.8 µM |
| – | – | – | COc1cc(/C=C/C(=O)/C=C/C2=C(C)C(O)CCC2(C)C)c(OCc2ccccc2)cc1OC (centres unmarked) [Compound B75] | IC50 (PC-3 cells [6]; [9]): 25.4 µM; IC50 (LNCaP cells [5]; [10]): 16.7 µM; IC50 (22Rv1 cells [7]; [11]): 19.2 µM; IC50 (C4-2B cells [8]; [12]): 23.3 µM |
| 1.8 | 4.7 | – | CCOC(OCC)c1cccc(/C=C/C(=O)/C=C/C2=C(C)C(O)CCC2(C)C)c1 (centres unmarked) [Compound B43] | – |
| 10.7 | 22.1 | – | CC1=C(/C=C/C(=O)/C=C/c2ccccc2F)C(C)(C)CCC1 [Compound B8] | – |
| 14.8 | 47.8 | – | CC1=C(/C=C/C(=O)/C=C/c2ccc(-c3ccccc3)cc2)C(C)(C)CCC1 [Compound B15] | – |
| – | – | – | CC1(C)CCC(O)C=C1/C=C/C(=O)/C=C/c1ccc2c(c1)OCO2 (centres unmarked) [Compound B76] | IC50 (PC-3 cells [6]; [13]): 25.8 µM; IC50 (LNCaP cells [5]; [14]): 11.2 µM; IC50 (22Rv1 cells [7]; [15]): 20.1 µM; IC50 (C4-2B cells [8]; [16]): 6.2 µM |
| 8.7 | 7.2 | – | CC1=C(/C=C/C(=O)/C=C/c2cc(C(F)(F)F)cc(C(F)(F)F)c2)C(C)(C)CCC1 [Compound B7] | – |
| – | – | – | CC1=C(/C=C/C(=O)/C=C/c2ccc(F)cc2F)C(C)(C)CCC1O (centres unmarked) [Compound B67] | IC50 (PC-3 cells [6]; [9]): 7.5 µM; IC50 (LNCaP cells [5]; [10]): 4.3 µM; IC50 (22Rv1 cells [7]; [11]): 4.8 µM; IC50 (C4-2B cells [8]; [12]): 2.1 µM |
| 3.2 | 1.9 | – | CC1=C(/C=C/C(=O)/C=C/c2cc(C(F)(F)F)ccc2C(F)(F)F)C(C)(C)CCC1O (racemic) [Compound B27] | IC50 (MDA PCa 2b cells): 4 µM |
| – | – | – | COc1ccc(/C=C/C(=O)/C=C/C2=C(C)C(O)CCC2(C)C)cc1 (centres unmarked) [Compound B53] | Cellular IC50 (μM) PC3 (PC-3 cells [6]; Table 8): Int; IC50 (LNCaP cells [5]; [10]): 13.3 µM; IC50 (22Rv1 cells [7]; [11]): 20.3 µM; IC50 (C4-2B cells [8]; [12]): 10.3 µM |
| – | – | – | CCOC(OCC)c1ccc(/C=C/C(=O)/C=C/C2=C(C)C(O)CCC2(C)C)cc1 (centres unmarked) [Compound B61] | IC50 (PC-3 cells [6]; [9]): 3.7 µM; IC50 (LNCaP cells [5]; [10]): 1.8 µM; IC50 (22Rv1 cells [7]; [11]): 2.1 µM; IC50 (C4-2B cells [8]; [12]): 1.7 µM |
| 4.9 | 8.8 | 8.9 | CC1=C(/C=C/C(=O)/C=C/c2c(F)cccc2C(F)(F)F)C(C)(C)CCC1O (racemic) [Compound B37] | – |
| 12.2 | 5.9 | 15.2 | CC1=CCCC(C)(C)C1/C=C/C(=O)/C=C/c1cccc(C)c1 (racemic) [Compound B22] | IC50 (C4-2B cells [4]): 6.2 µM |
| – | – | – | CC1=C(/C=C/C(=O)/C=C/c2ccc(OC(F)(F)C(F)F)cc2)C(C)(C)CCC1O (centres unmarked) [Compound B55] | IC50 (PC-3 cells [6]; [9]): 12.3 µM; IC50 (LNCaP cells [5]; [10]): 5.4 µM; IC50 (22Rv1 cells [7]; [11]): 7.7 µM; IC50 (C4-2B cells [8]; [12]): 4.6 µM |
| – | – | – | COc1cc(OC)c(OC)cc1/C=C/C(=O)/C=C/C1=C(C)C(O)CCC1(C)C (centres unmarked) [Compound B73] | IC50 (PC-3 cells [6]; [9]): 9.5 µM; IC50 (LNCaP cells [5]; [10]): 3.7 µM; IC50 (22Rv1 cells [7]; [11]): 5.4 µM; IC50 (C4-2B cells [8]; [12]): 3.2 µM |
| – | – | – | CC1=C(/C=C/C(=O)/C=C/c2cccc(OCc3ccccc3)c2)C(C)(C)CCC1O (centres unmarked) [Compound B49] | IC50 (PC-3 cells [6]; [9]): 8 µM; IC50 (LNCaP cells [5]; [10]): 5 µM; IC50 (22Rv1 cells [7]; [11]): 5.4 µM; IC50 (C4-2B cells [8]; [12]): 2.6 µM |
| 2.7 | 10 | – | CC1=C(/C=C/C(=O)/C=C/c2cccc([N+](=O)[O-])c2)C(C)(C)CCC1 [Compound B11] | – |
| – | – | – | CC1(C)CCC(O)C=C1/C=C/C(=O)/C=C/c1ccc2[nH]ccc2c1 (centres unmarked) [Compound B89] | IC50 (PC-3 cells [6]; [13]): 3.1 µM; IC50 (LNCaP cells [5]; [14]): 1.5 µM; IC50 (22Rv1 cells [7]; [15]): 2.3 µM; IC50 (C4-2B cells [8]; [16]): 1.6 µM |
| – | – | – | Cc1cccc2c(/C=C/C(=O)/C=C/C3=CC(O)CCC3(C)C)c[nH]c12 (centres unmarked) [Compound B86] | IC50 (PC-3 cells [6]; [13]): 6.4 µM; IC50 (LNCaP cells [5]; [14]): 2.6 µM; IC50 (22Rv1 cells [7]; [15]): 5.3 µM; IC50 (C4-2B cells [8]; [16]): 3.6 µM |
| – | – | – | CC1(C)CCC(O)C=C1/C=C/C(=O)/C=C/c1ccc2c(c1)CCO2 (centres unmarked) [Compound B79] | IC50 (PC-3 cells [6]; [13]): 14.8 µM; IC50 (LNCaP cells [5]; [14]): 4.7 µM; IC50 (22Rv1 cells [7]; [15]): 10.4 µM; IC50 (C4-2B cells [8]; [16]): 5.6 µM |
| – | – | – | COc1ccc(/C=C/C(=O)/C=C/C2=C(C)C(O)CCC2(C)C)cc1O (centres unmarked) [Compound B69] | IC50 (PC-3 cells [6]; [9]): 53.9 µM; IC50 (LNCaP cells [5]; [10]): 12.3 µM; IC50 (22Rv1 cells [7]; [11]): 19.1 µM; IC50 (C4-2B cells [8]; [12]): 12 µM |
| 2.6 | 4.6 | 3.8 | CC1=C(/C=C/C(=O)/C=C/c2ccc(C(F)(F)F)cc2F)C(C)(C)CCC1O (racemic) [Compound B35] | – |
